Source: patent US8076487B2, “Pyridone derivative and herbicide” (Kumiai Chemical Industry Co., Ltd., priority 2006, dated 2011)

Columns and labels:
Assay type in all cases: in vivo
[1] = system: Japanese bulrush (Scirpus juncoides Roxb.); experiment: Test Example 1: herbicidal effect by soil application to paddy field; details: paddy field soil application; active ingredient 1,000 g per 1 hectare; wettable powder added dropwise to water surface the day after sowing; examined on the 21st day after application
Procedure, shortened: (§1)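 Plants were sown in flooded (3 cm) paddy soil and evaluated for herbicidal effect 21 days after soil application in a greenhouse.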

[2] = system: early watergrass (Echinochloa oryzicola Vasing); experiment: as above; details: paddy field soil application; active ingredient 1,000 g per 1 hectare; wettable powder added dropwise to water surface the day after sowing; examined on the 21st day after application
Procedure, shortened: as §1

[3] = system: heartshape false pickerelweed (Monochoria vaginalis (Burm.f.) C.Presl); experiment: as above; details: paddy field soil application; active ingredient 1,000 g per 1 hectare; wettable powder added dropwise to water surface the day after sowing; examined on the 21st day after application
Procedure, shortened: as §1

[4] = system: barnyardgrass (Echinochloa crus-galli (L.) P. Beauv. var. crus-galli); experiment: Test Example 2: herbicidal effect by soil application to upland field; details: soil surface spray, upland field soil, 1,000 g active ingredient per hectare, 21st day after application
Procedure, shortened: (§2)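 Greenhouse pot assay with field soil. Freshly sown seeds were covered with soil, then the surface was sprayed with diluted wettable powder: 1,000 g a.i./ha, 1,000 L/ha. Herbicidal effect scored at day 21 by standard criteria.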

[5] = system: green foxtail (Setaria viridis (L.) P. Beauv.); experiment: as above; details: soil surface spray, upland field soil, 1,000 g active ingredient per hectare, 21st day after application
Procedure, shortened: as §2

[6] = system: slender amaranth (Amaranthus viridis L.); experiment: as above; details: soil surface spray, upland field soil, 1,000 g active ingredient per hectare, 21st day after application
Procedure, shortened: as §2

[7] = system: velvetleaf (Abutilon theophrasti medicus); experiment: as above; details: soil surface spray, upland field soil, 1,000 g active ingredient per hectare, 21st day after application
Procedure, shortened: as §2

[8] = system: barnyardgrass (Echinochloa crus-galli (L.) P. Beauv. var. crus-galli); experiment: Test Example 3: herbicidal effect by application to upland field (foliage treatment); details: foliage treatment, plants grown two weeks, 1,000 g active ingredient per hectare, 14th day after application
Procedure, shortened: (§3)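 Sow in field soil; grow 2 weeks in greenhouse; spray foliage from above with wettable-powder dilution (1,000 g AI/ha, 1,000 L/ha); return to greenhouse; score effect at day 14 against a standard.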

[9] = system: green foxtail (Setaria viridis (L.) P. Beauv.); experiment: as above; details: foliage treatment, plants grown two weeks, 1,000 g active ingredient per hectare, 14th day after application
Procedure, shortened: as §3

[10] = system: slender amaranth (Amaranthus viridis L.); experiment: as above; details: foliage treatment, plants grown two weeks, 1,000 g active ingredient per hectare, 14th day after application
Procedure, shortened: as §3

[11] = system: velvetleaf (Abutilon theophrasti medicus); experiment: as above; details: foliage treatment, plants grown two weeks, 1,000 g active ingredient per hectare, 14th day after application
Procedure, shortened: as §3

| Structure (SMILES) | herbicidal effect, Scirpus juncoides Roxb. [1] | herbicidal effect, Echinochloa oryzicola Vasing [2] | herbicidal effect, Monochoria vaginalis (Burm. f.) C. Presl [3] | herbicidal effect (index), Barnyardgrass [4] | herbicidal effect (index), Green Foxtail [5] | herbicidal effect (index), Slender Amaranth [6] | herbicidal effect (index), Velvetleaf [7] | herbicidal effect (index), Barnyardgrass [8] | herbicidal effect (index), Green Foxtail [9] | herbicidal effect (index), Slender Amaranth [10] | herbicidal effect (index), Velvetleaf [11] |
| --- | --- | --- | --- | --- | --- | --- | --- | --- | --- | --- | --- |
| CCCSCn1c(C(F)(F)F)ccc(C(=O)C2=C(O)CCCC2=O)c1=O [I-50] | 5 (90% or more of herbicidal effect and crop phytotoxicity) | 5 (90% or more of herbicidal effect and crop phytotoxicity) | 5 (90% or more of herbicidal effect and crop phytotoxicity) | 5 (90% or more of herbicidal effect and crop phytotoxicity) | 5 (90% or more of herbicidal effect and crop phytotoxicity) | 5 (90% or more of herbicidal effect and crop phytotoxicity) | 5 (90% or more of herbicidal effect and crop phytotoxicity) | 5 (90% or more of herbicidal effect and crop phytotoxicity) | 3 (50 to less than 70% of herbicidal effect and crop phytotoxicity) | 5 (90% or more of herbicidal effect and crop phytotoxicity) | 5 (90% or more of herbicidal effect and crop phytotoxicity) |
| CCCS(=O)(=O)Cn1c(C(F)(F)F)ccc(C(=O)C2=C(O)CCCC2=O)c1=O [I-51] | 5 (90% or more of herbicidal effect and crop phytotoxicity) | 5 (90% or more of herbicidal effect and crop phytotoxicity) | 5 (90% or more of herbicidal effect and crop phytotoxicity) | 5 (90% or more of herbicidal effect and crop phytotoxicity) | 5 (90% or more of herbicidal effect and crop phytotoxicity) | 5 (90% or more of herbicidal effect and crop phytotoxicity) | 5 (90% or more of herbicidal effect and crop phytotoxicity) | 5 (90% or more of herbicidal effect and crop phytotoxicity) | 5 (90% or more of herbicidal effect and crop phytotoxicity) | 5 (90% or more of herbicidal effect and crop phytotoxicity) | 5 (90% or more of herbicidal effect and crop phytotoxicity) |
| O=C1CCCC(O)=C1C(=O)c1ccc(C(F)(F)F)n(CSC2CC2)c1=O [I-52] | 5 (90% or more of herbicidal effect and crop phytotoxicity) | 5 (90% or more of herbicidal effect and crop phytotoxicity) | 5 (90% or more of herbicidal effect and crop phytotoxicity) | 5 (90% or more of herbicidal effect and crop phytotoxicity) | 5 (90% or more of herbicidal effect and crop phytotoxicity) | 5 (90% or more of herbicidal effect and crop phytotoxicity) | 5 (90% or more of herbicidal effect and crop phytotoxicity) | 5 (90% or more of herbicidal effect and crop phytotoxicity) | 5 (90% or more of herbicidal effect and crop phytotoxicity) | 5 (90% or more of herbicidal effect and crop phytotoxicity) | 5 (90% or more of herbicidal effect and crop phytotoxicity) |
| O=C1CCCC(O)=C1C(=O)c1ccc(C(F)(F)F)n(CS(=O)(=O)C2CC2)c1=O [I-53] | 5 (90% or more of herbicidal effect and crop phytotoxicity) | 5 (90% or more of herbicidal effect and crop phytotoxicity) | 5 (90% or more of herbicidal effect and crop phytotoxicity) | 5 (90% or more of herbicidal effect and crop phytotoxicity) | 5 (90% or more of herbicidal effect and crop phytotoxicity) | 5 (90% or more of herbicidal effect and crop phytotoxicity) | 5 (90% or more of herbicidal effect and crop phytotoxicity) | 5 (90% or more of herbicidal effect and crop phytotoxicity) | 5 (90% or more of herbicidal effect and crop phytotoxicity) | 5 (90% or more of herbicidal effect and crop phytotoxicity) | 5 (90% or more of herbicidal effect and crop phytotoxicity) |
| CC(C)S(=O)(=O)Cn1c(C(F)(F)F)ccc(C(=O)C2=C(O)CCCC2=O)c1=O [I-54] | 5 (90% or more of herbicidal effect and crop phytotoxicity) | 5 (90% or more of herbicidal effect and crop phytotoxicity) | 5 (90% or more of herbicidal effect and crop phytotoxicity) | 5 (90% or more of herbicidal effect and crop phytotoxicity) | 4 (70 to less than 90% of herbicidal effect and crop phytotoxicity) | 5 (90% or more of herbicidal effect and crop phytotoxicity) | 5 (90% or more of herbicidal effect and crop phytotoxicity) | 5 (90% or more of herbicidal effect and crop phytotoxicity) | 5 (90% or more of herbicidal effect and crop phytotoxicity) | 5 (90% or more of herbicidal effect and crop phytotoxicity) | 5 (90% or more of herbicidal effect and crop phytotoxicity) |
| CC(C)(C)SCn1c(C(F)(F)F)ccc(C(=O)C2=C(O)CCCC2=O)c1=O [I-55] | 5 (90% or more of herbicidal effect and crop phytotoxicity) | 5 (90% or more of herbicidal effect and crop phytotoxicity) | 5 (90% or more of herbicidal effect and crop phytotoxicity) | 5 (90% or more of herbicidal effect and crop phytotoxicity) | 5 (90% or more of herbicidal effect and crop phytotoxicity) | 5 (90% or more of herbicidal effect and crop phytotoxicity) | 5 (90% or more of herbicidal effect and crop phytotoxicity) | 5 (90% or more of herbicidal effect and crop phytotoxicity) | 5 (90% or more of herbicidal effect and crop phytotoxicity) | 5 (90% or more of herbicidal effect and crop phytotoxicity) | 5 (90% or more of herbicidal effect and crop phytotoxicity) |
